Data: ChEMBL document CHEMBL3785052, “Novel spiropyrazolone antitumor scaffold with potent activity: Design, synthesis and structure-activity relationship” (Eur J Med Chem, 2016)

Columns and labels:
A549 = assay: Cytotoxicity against human A549 cells assessed as growth inhibition after 72 hrs by MTT assay; format: functional, cell-based; conditions: A549, 72 h
[1] = Cytotoxicity against human HCT116 cells assessed as growth inhibition after 72 hrs by MTT assay; format: functional, cell-based; conditions: HCT-116, 72 h
MDA-MB-231 = assay: Cytotoxicity against human MDA-MB-231 cells assessed as growth inhibition after 72 hrs by MTT assay; format: functional, cell-based; conditions: MDA-MB-231, 72 h
HCT-116 [2] = assay: Induction of apoptosis in human HCT116 cells assessed as apoptotic cells at 5 uM after 24 hrs by annexin V-FITC/propidium iodide staining based flow cytometric analysis; format: functional
HCT-116 [3] = assay: Induction of apoptosis in human HCT116 cells assessed as apoptotic cells at 5 uM after 48 hrs by annexin V-FITC/propidium iodide staining based flow cytometric analysis; format: functional

Structure (SMILES) | IC50 (A549) | IC50 [1] | IC50 (MDA-MB-231) | Activity (HCT-116 [2]) | Activity (HCT-116 [3])
CC1=NN(c2ccccc2)C(=O)[C@@]12C(=O)C=CC[C@@H]2c1ccc(C)cc1 (racemic) | 6.57 µM | 5.22 µM | 7.42 µM | – | –
CC1=NN(c2ccc(C)cc2)C(=O)[C@@]12C(=O)C=CC[C@H]2c1ccc(C)cc1 | 6.79 µM | 3.62 µM | 9.2 µM | – | –
COc1ccccc1[C@@H]1CC=CC(=O)[C@]12C(=O)N(c1ccccc1)N=C2C | 3.96 µM | 2.85 µM | 5.14 µM | 68.44% | 72.13%
COc1cccc2c1C(=O)c1c(O)c3c(c(O)c1C2=O)C[C@@](O)(C(=O)CO)C[C@@H]3O[C@H]1C[C@H](N)[C@H](O)[C@H](C)O1 [DOXORUBICIN] | – | – | 0.45 µM | – | –
CC1=NN(c2ccccc2)C(=O)[C@@]12C(=O)C=CC[C@@H]2c1ccccc1 (racemic) | 7.77 µM | 6.07 µM | 9.31 µM | – | –
CC1=NN(c2ccccc2)C(=O)[C@]12C(=O)C=CC[C@@H]2c1ccccc1 (racemic) | 9.18 µM | 6.04 µM | 9.08 µM | – | –
CC1=NN(c2ccccc2)C(=O)[C@@]12C(=O)C=CC[C@@H]2c1ccccc1[N+](=O)[O-] (racemic) | 66.4 µM | 66.8 µM | 68.3 µM | – | –
CC1=NN(c2ccccc2)C(=O)[C@]12C(=O)C=CC[C@@H]2c1ccc(C)cc1 (racemic) | 8.6 µM | 5.8 µM | 6.24 µM | – | –
CC1=NN(c2ccccc2)C(=O)[C@@]12C(=O)C=CC[C@H]2c1ccc(C)cc1 | 6.09 µM | 5.21 µM | 8.3 µM | – | –
CC1=NN(c2ccccc2)C(=O)[C@@]12C(=O)C=CC[C@H]2c1ccccc1 | 3.77 µM | 4.4 µM | 5.5 µM | – | –
CC1=NN(c2ccccc2)C(=O)[C@@]12C(=O)C=CC[C@@H]2c1cccc(C)c1 (racemic) | 4.51 µM | 3.8 µM | 6.8 µM | – | –
O=C(CCCCCCC(=O)Nc1ccccc1)NO [VORINOSTAT] | – | – | – | 42.2% | 62.4%
COc1ccccc1[C@H]1CC=CC(=O)[C@@]12C(=O)N(c1ccccc1)N=C2C (racemic) | 18.7 µM | 13.9 µM | 15.7 µM | – | –
CC1=NN(c2ccc(C)cc2)C(=O)[C@]12C(=O)C=CC[C@@H]2c1ccc(C)cc1 (racemic) | 54.2 µM | 14.6 µM | 57.2 µM | – | –
CC1=NN(c2ccccc2)C(=O)[C@]12C(=O)C=CC[C@H]2c1ccccc1 | 8.29 µM | 5.3 µM | 5.8 µM | – | –
CC1=NN(c2ccccc2)C(=O)[C@]12C(=O)C=CC[C@H]2c1ccccc1[N+](=O)[O-] | 12.9 µM | 11.2 µM | 32.4 µM | – | –
CC1=NN(c2ccccc2)C(=O)[C@@]12C(=O)C=CC[C@H]2c1cccc(C)c1 | 3.5 µM | 5.82 µM | 6.61 µM | – | –
CC1=NN(c2ccc(C)cc2)C(=O)[C@@]12C(=O)C=CC[C@@H]2c1ccc(C)cc1 (racemic) | 4.32 µM | 4.15 µM | 8.12 µM | – | –
CC1=NN(c2ccccc2)C(=O)[C@]12C(=O)C=CC[C@@H]2c1cccc(C)c1 (racemic) | 4.77 µM | 5.49 µM | 8 µM | – | –
CC1=NN(c2ccccc2)C(=O)[C@]12C(=O)C=CC[C@H]2c1ccc(C)cc1 | 2.89 µM | 4.22 µM | 5.72 µM | – | –
CC1=NN(c2ccc(C)cc2)C(=O)[C@]12C(=O)C=CC[C@H]2c1ccc(C)cc1 | 7.52 µM | 3.53 µM | 8.28 µM | – | –
CC1=NN(c2ccccc2)C(=O)[C@]12C(=O)C=CC[C@H]2c1cccc(C)c1 | 13.1 µM | 9.58 µM | 10.3 µM | – | –
